pIC50: −log10 of the molar value. Read-outs that look alike come from different tables or passages of the source.
Legend:
[1] = tested on: immature castrated male rats; test: Immature Rat Prostate Weight (IRPW) Assay; assay type: in vivo, rat (Sprague-Dawley); settings: Rattus norvegicus, 96 h, read-out: IRPW SV/FB (% control)
androgen receptor (AR) = biological target: T1, androgen receptor (AR) (Homo sapiens, UniProt P10275); test: MDA-MB-453 Androgen Receptor Transactivation Assay (PSA-Luc reporter, 3 nM DHT); assay type: cell-based; settings: MDA-MB-453 cells, antagonism in presence of 3 nM DHT, 48 hour incubation
T1 sequence (P10275 1-920): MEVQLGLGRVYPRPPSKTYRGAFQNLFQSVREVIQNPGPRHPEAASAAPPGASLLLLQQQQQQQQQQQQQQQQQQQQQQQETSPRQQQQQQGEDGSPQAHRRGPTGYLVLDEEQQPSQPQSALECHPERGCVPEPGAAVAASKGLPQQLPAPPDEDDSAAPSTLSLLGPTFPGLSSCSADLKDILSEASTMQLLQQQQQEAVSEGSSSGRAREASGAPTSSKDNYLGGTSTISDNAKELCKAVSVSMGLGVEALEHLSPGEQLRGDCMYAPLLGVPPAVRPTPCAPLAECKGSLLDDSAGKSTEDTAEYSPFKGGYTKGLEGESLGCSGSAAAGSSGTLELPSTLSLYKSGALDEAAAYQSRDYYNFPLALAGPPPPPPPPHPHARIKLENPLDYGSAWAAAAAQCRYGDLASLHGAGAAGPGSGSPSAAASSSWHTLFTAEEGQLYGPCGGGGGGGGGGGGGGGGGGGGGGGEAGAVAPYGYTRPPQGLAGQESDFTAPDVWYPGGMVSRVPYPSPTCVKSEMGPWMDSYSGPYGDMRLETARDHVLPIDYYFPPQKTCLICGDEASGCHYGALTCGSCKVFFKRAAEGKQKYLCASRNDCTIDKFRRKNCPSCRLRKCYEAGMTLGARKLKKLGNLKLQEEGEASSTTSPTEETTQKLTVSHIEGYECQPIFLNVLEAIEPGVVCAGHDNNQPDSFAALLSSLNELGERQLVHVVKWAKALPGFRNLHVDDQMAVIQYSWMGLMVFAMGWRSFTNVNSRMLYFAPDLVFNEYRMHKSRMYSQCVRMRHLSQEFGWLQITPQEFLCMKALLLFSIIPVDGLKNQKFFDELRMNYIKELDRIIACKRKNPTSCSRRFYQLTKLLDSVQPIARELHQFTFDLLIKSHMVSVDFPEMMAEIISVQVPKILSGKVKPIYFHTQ
Description: Compounds can be tested in a cell based transactivation assay used to measure the antagonism of androgen receptor (AR) transcriptional activity. The transactivation assay provides a means of identifying antagonists that inhibit the effects of the native hormone dihydrotestosterone (DHT). […] The pGL3 PSA-Luc reporter plasmid is comprised of the cDNA for the firefly luciferase gene and the upstream promoter sequences containing the androgen response elements (AREs) of the prostate specific antigen (PSA). This plasmid functions as a reporter for the transcription-modulating activity of the AR. In order to detect antagonists, the transactivation assay is conducted in the presence of constant concentration of the natural AR hormone (DHT) to induce a defined reporter signal. Addition of increasing concentrations of the suspected antagonist will decrease the reporter signal (luciferase activity).
MDA-MB-453 and 22 RV1 cells were maintained in DMEM (Cellgro, Cat. #10-014-CM) or RPMI 1640 (Gibco Cat. #11875-085) respectively and supplemented with 10% FBS (Invitrogen/GIBCO Life Science). Cells were bulk transfected in flasks with 1.3 ug/ml pGL3 PSA-Luc plasmid by using the Lipofectamine 2000 Reagent (Invitrogen, Cat. #11668-019) and serum-free Opti-MEM I media (Invitrogen, Cat #31985-070) according to the manufacturer's optimized conditions. Transfection was conducted at 37° C. with 5% CO2 for 16-18 hours. Following transfection, cells are washed, treated with trypsin, counted, and seeded in a 96-well plate at 30,000 cells per well in DMEM containing 10% Charcoal/Dextran Treated Fetal Bovine Serum (Gibco Cat. #11054-020) for MDA-MB-453 cells or RPMI 1640 (Gibco Cat. #110835) containing 10% FBS (Invitrogen/GIBCO Life Science) for 22 RV1 cells.
Following transfection, cells were incubated in the absence (blank) or presence (control) of 3 nM DHT (Sigma, Cat. #A-8380) and in the presence or absence of the standard antiandrogen bicalutamide or test compounds ranging in concentrations from 10^−10 to 10^−5M. Duplicates were used for each sample. The compound dilutions were performed by the Tecan Genesis (Tecan, Triangle Park, N.C.). After a 48 hour incubation, luciferase activity was measured using the Steady-Glo Luciferase Assay System (Promega, Cat. #E2550) according to manufacturer's specifications and luminescence was measured on a Packard TopCount (PerkinElmer). For each luciferase sample reading, the percent control (in absence of compounds) was calculated as: % Control=100×[averagesample−averageblank]/[averagecontrol−averageblank] Data was plotted and the IC50 value was defined as the concentration of compound that inhibited 50% of the luciferase activity for the controls.
Compounds described herein were tested in the AR transactivation assay described immediately above, using MDA-MB-453 cells.

[2] = immature castrated rats, 3 mpk PO QD × 4 days

Row | Compound | response vs control in vivo at 3 mg/kg [1, 2] [%] | pIC50 (androgen receptor (AR); read-out: IC50) | response vs control in vivo at 3 mg/kg ([1]; po) [%] | pIC50 (androgen receptor (AR))
1 | C#Cc1cc(N2C(=O)[C@H]3[C@H]4[C@@H]2OCC[C@@]42O[C@]3(C)C[C@@H]2O)ccc1C#N [Example 62, 2-Ethynyl-4-((1R,2S,4R,5S,8S,12R)-2-hydroxy-4-methyl-6-oxo-9,13-dioxa-7-azatetracyclo[6.3.1.1^1,4.0^5,12]tridec-7-yl)benzonitrile] | 108 | 5.72 | – | –
2 | C[C@@]12C[C@H](O)[C@]3(CCO[C@H]4[C@@H]3[C@@H]1C(=O)N4c1ccc(C#N)c(Br)c1)O2 [Example 66, 2-Bromo-4-((1R,2S,4R,5S,8S,12R)-2-hydroxy-4-methyl-6-oxo-9,13-dioxa-7-azatetracyclo[6.3.1.1^1,4.0^5,12]tridec-7-yl)benzonitrile] | 38 | 6.71 | – | –
3 | C[C@@]12C[C@H](O)[C@]3(CCO[C@H]4[C@@H]3[C@@H]1C(=O)N4c1ccc(Cl)c(Cl)c1)O2 [Example 113, (1R,2S,4R,5S,8S,12R)-7-(3,4-dichlorophenyl)-2-hydroxy-4-methyl-9,13-dioxa-7-azatetracyclo[6.3.1.1^1,4.0^5,12]tridecan-6-one] | 68 | 5.87 | – | –
4 | C[C@@]12C[C@H](O)[C@]3(CCO[C@H]4[C@@H]3[C@@H]1C(=O)N4c1ccc(C#N)c(Cl)c1)O2 [Example 119, 2-Chloro-4-((1R,2S,4R,5S,8S,12R)-2-hydroxy-4-methyl-6-oxo-9,13-dioxa-7-azatetracyclo[6.3.1.1^1,4.0^5,12]tridec-7-yl)benzonitrile] | – | – | 39 | 6.74
5 | C[C@@]12C[C@H](O)[C@]3(CCO[C@H]4[C@@H]3[C@@H]1C(=O)N4c1ccc(Cl)c(C#N)c1)O2 [Example 120, 2-Chloro-5-((1R,2S,4R,5S,8S,12R)-2-hydroxy-4-methyl-6-oxo-9,13-dioxa-7-azatetracyclo[6.3.1.1^1,4.0^5,12]tridec-7-yl)benzonitrile] | 80 | 5.78 | – | –
6 | Cc1cc(N2C(=O)[C@H]3[C@H]4[C@@H]2OCC[C@@]42O[C@]3(C)C[C@@H]2O)ccc1C#N [Example 122, 4-((1R,2S,4R,5S,8S,12R)-2-hydroxy-4-methyl-6-oxo-9,13-dioxa-7-azatetracyclo[6.3.1.1^1,4.0^5,12]tridec-7-yl)-2-methylbenzonitrile] | 90 | 5.77 | – | –
7 | C[C@]12O[C@@]3(CCO[C@H]4[C@@H]3[C@@H]1C(=O)N4c1cc(F)c(C#N)c(C(F)(F)F)c1)C[C@H]2O [Example 139, 2-Fluoro-4-((1S,3R,4S,5S,8S,12R)-3-hydroxy-4-methyl-6-oxo-9,13-dioxa-7-azatetracyclo[6.3.1.1^1,4.0^5,12]tridec-7-yl)-6-(trifluoromethyl)benzonitrile] | – | – | 35 | 7.22
8 | C[C@]12O[C@@]3(CCO[C@H]4[C@@H]3[C@@H]1C(=O)N4c1ccc(C#N)c(C(F)(F)F)c1)C[C@@H]2O [Example 156, 4-((1S,3S,4S,5S,8S,12R)-3-hydroxy-4-methyl-6-oxo-9,13-dioxa-7-azatetracyclo[6.3.1.1^1,4.0^5,12]tridec-7-yl)-2-(trifluoromethyl)benzonitrile] | – | – | 64 | 6.52
9 | CCS(=O)(=O)N[C@H]1C[C@@]2(C)O[C@@]13CCO[C@H]1[C@@H]3[C@@H]2C(=O)N1c1ccc(C#N)c(Br)c1 [Example 179, N-((1R,2S,4R,5S,8S,12R)-7-(3-Bromo-4-cyanophenyl)-4-methyl-6-oxo-9,13-dioxa-7-azatetracyclo[6.3.1.1^1,4.0^5,12]tridec-2-yl)ethanesulfonamide] | 31 | 6.85 | – | –
10 | C[C@@]12C[C@H](NS(=O)(=O)CC(F)(F)F)[C@]3(CCO[C@H]4[C@@H]3[C@@H]1C(=O)N4c1ccc(C#N)c(Cl)c1)O2 [Example 185, N-((1R,2S,4R,5S,8S,12R)-7-(3-Chloro-4-cyanophenyl)-4-methyl-6-oxo-9,13-dioxa-7-azatetracyclo[6.3.1.1^1,4.0^5,12]tridec-2-yl)-2,2,2-trifluoroethanesulfonamide] | – | – | 31 | 6.83
11 | CCS(=O)(=O)N[C@H]1C[C@@]2(C)O[C@@]13CCO[C@H]1[C@@H]3[C@@H]2C(=O)N1c1cc(Cl)c(C#N)c(Cl)c1 [Example 186, N-((1R,2S,4R,5S,8S,12R)-7-(3,5-Dichloro-4-cyanophenyl)-4-methyl-6-oxo-9,13-dioxa-7-azatetracyclo[6.3.1.1^1,4.0^5,12]tridec-2-yl)ethanesulfonamide] | – | – | 39 | 6.66
12 | CCS(=O)(=O)N[C@H]1C[C@@]2(C)O[C@@]13CCO[C@H]1[C@@H]3[C@@H]2C(=O)N1c1ccc(C#N)c(OC(F)(F)F)c1 [Example 188, N-((1R,2S,4R,5S,8S,12R)-7-(4-Cyano-3-(trifluoromethoxy)phenyl)-4-methyl-6-oxo-9,13-dioxa-7-azatetracyclo[6.3.1.1^1,4.0^5,12]tridec-2-yl)ethanesulfonamide] | 33 | 6.42 | – | –
13 | COC(=O)N[C@@H]1C[C@@]23CCO[C@H]4[C@@H]2[C@H](C(=O)N4c2ccc(C#N)c(C(F)(F)F)c2)[C@]1(C)O3 [Example 207, Methyl ((1R,3R,4S,5S,8S,12R)-7-(4-cyano-3-(trifluoromethyl)phenyl)-4-methyl-6-oxo-9,13-dioxa-7-azatetracyclo[6.3.1.1^1,4.0^5,12]tridec-3-yl)carbamate] | – | – | 37 | 7.27
14 | COC(=O)N[C@@H]1C[C@@]23CCO[C@H]4[C@@H]2[C@H](C(=O)N4c2cc(Cl)c(C#N)c(Cl)c2)[C@]1(C)O3 [Example 208, Methyl ((1R,3R,4S,5S,8S,12R)-7-(3,5-dichloro-4-cyanophenyl)-4-methyl-6-oxo-9,13-dioxa-7-azatetracyclo[6.3.1.1^1,4.0^5,12]tridec-3-yl)carbamate] | – | – | 37 | 6.93
15 | CCC(=O)N[C@H]1C[C@@]23CCO[C@H]4[C@@H]2[C@H](C(=O)N4c2ccc(C#N)c(C(F)(F)F)c2)[C@]1(C)O3 [Example 236, N-((1R,3S,4S,5S,8S,12R)-7-(4-cyano-3-(trifluoromethyl)phenyl)-4-methyl-6-oxo-9,13-dioxa-7-azatetracyclo[6.3.1.1^1,4.0^5,12]tridec-3-yl)propanamide] | – | – | 62 | 6.98

Reference: patent publication US8067582B2 (Bristol-Myers Squibb Company, priority 2007, dated 2011)
